According to ChEMBL document CHEMBL1142112, “Antiproliferative xanthones of Terminalia calcicola from the Madagascar rain forest” (J Nat Prod, 2007):

Test system: A2780
Test: Antiproliferative activity against human A2780 cells
Assay type: cell-based

IC50 [µM]	Compound
8.1	CC(C)=CCc1c(O)c(O)cc2oc3c4c(cc(O)c3c(=O)c12)OC(C)(C)C=C4
40.6	CC(C)=CCc1c(O)ccc2oc3c(O)c4c(c(O)c3c(=O)c12)C=CC(C)(C)O4 [TERMICALCICOLANONE A]
